Measured values taken from patent publication US12617770B2, “IRAK inhibitor and preparation method therefor and use thereof” (WUHAN CREATERNA SCIENCE AND TECHNOLOGY CO., LTD., priority 2019, dated 2026).

Tests used:
[1] = Plasma protein binding (PPB), equilibrium dialysis, rat plasma; assay type: in vitro ADME; settings: 5 h at 37° C., read-out: Plasma protein binding (Bound %) Rat (converted)
Experimental: (§1) The experiment is intended to determine plasma protein binding (PPB) data of the test compounds disclosed herein.
(§2) In the PPB experiment, the final administration matrix contained the test compound or a reference compound with a concentration of 1 μM and DMSO with a content of 0.2%.
(§3) Collecting samples in initial time: 25 μL of the matrix containing the compound was added into a blank 96-well collecting plate, and the plate was stored at −20° C.
(§4) An equilibrated dialysis device was prepared. 100 μL of buffer was added to the receiving side of the equilibrium dialysis plate. Then 100 μL of the administration matrix containing the compound or the reference compound was added into an administration side of the equilibrium dialysis plate. The prepared equilibrium dialysis plate was placed in a 37° C. shaker to be shaken for 5 h at 60 rpm.
(§5) Sample was prepared at the end of cultivation (5 h): Preparing sample in the receiving side: 25 μL of sample from a receiving side was taken out and placed in a 96-well sample collecting plate, and 25 μL of a corresponding matrix (blank plasma) was added for mixing: 200 μL of ACN containing an internal standard was added, shaken for 10 minutes at 600 rpm, and centrifuged at 5594 g for 15 min.
(§6) Preparing sample in the administration side: 25 μL of the sample containing test compound and reference compound from the administration side was taken out and 25 μL of a blank buffer was added for mixing; 200 μL of ACN containing an internal standard was added, shaken for 10 minutes at 600 rpm, and centrifuged at 5594 g for 15 min.
(§7) Preparing sample in initial time: the sample containing test compound and reference compound was re-melted at 37° C. in initial time and then mixed with the corresponding matrix (blank buffer) in the same volume (25 μL); 200 μL of ACN containing an internal standard was added, shaken for 10 minutes at 600 rpm, and centrifuged at 5594 g for 15 min.
(§8) After all the samples were centrifuged, 50 μL of a supernatant was taken and added into 50 μL of ultrapure water for mixing, and the samples were sent to liquid chromatography-mass spectrometry.

CYP3A4 [2] = target: T1, CYP3A4 (Homo sapiens, UniProt P08684); test: CYP450 inhibition in human liver microsomes, CYP3A4-M; assay type: in vitro ADME; settings: human, microsomes
T1 construct: The test compounds were co-incubated with the human liver microsomes and a probe substrate midazolam (CYP3A4); tissue Corning (USA); host or cells: mixed (pooled) human liver microsomes
Experimental: (§9) This study was intended to investigate the inhibitory effect of the test compounds on 5 major enzymes in human P450 superfamily, CYP1A2, 2C9, 2C19, 2D6 and 3A4-M. The mixed human liver microsomes used in this assay were purchased from Corning (USA). The test compound (compound 14) was co-incubated at 7 concentrations with human liver microsomes and five probe substrates (phenacetin for CYP1a2, diclofenac for CYP2C9, mephenytoin for CYP2C19, dextromethorphan for CYP2D6, midazolam for CYP3A4-M, mixed). The reaction was initiated by adding coenzyme NADPH, and terminated by adding acetonitrile containing internal standard. After the proteins were precipitated, the supernatant was centrifuged. The characteristic metabolites in the supernatant (acetaminophen for CYP1A2, 4-hydroxydiclofenac for CYP2C9, 4-hydroxymephenytoin for CYP2C19, dextrorphan for CYP2D6, 1-hydroxymidazolam for CYP3A4-M) were analyzed by LC-MS/MS. The influence of the test compounds on production of the characteristic metabolites was finally analyzed on the basis of the data obtained. A selective inhibitor (ketoconazole for CYP3A4-M) may be used as positive control. All samples were tested in duplicate.

[3] = Plasma protein binding (PPB), equilibrium dialysis, human plasma; assay type: in vitro ADME; settings: 5 h at 37° C., read-out: Plasma protein binding (Bound %) Human (converted)
Experimental: as §1, §2, §3, §4, §5, §6, §7, §8

[4] = Plasma protein binding (PPB), equilibrium dialysis, mouse plasma; assay type: in vitro ADME; settings: 5 h at 37° C., read-out: Plasma protein binding (Bound %) Mouse (converted)
Experimental: as §1, §2, §3, §4, §5, §6, §7, §8

CYP2D6 = target: T2, CYP2D6 (Homo sapiens, UniProt P10635); test: CYP450 inhibition in human liver microsomes, CYP2D6; assay type: in vitro ADME; settings: human, microsomes
T2 construct: co-incubated at 7 concentrations with human liver microsomes and five probe substrates; tissue Corning (USA); host or cells: mixed (pooled) human liver microsomes
Experimental: as §9

TNF-α release = test: Inhibition of cytokine TNF-α release in LPS-induced Balb/c female mice; assay type: in vivo; settings: oral gavage 16 h before LPS (i.p. 0.2 mg/kg); serum 1.5 h after stimulation
Experimental: Female Balb/c mice were randomized into groups, each containing 4 mice, including a control+vehicle group, a model+vehicle group, a model+reference group and model+compound groups. The control animals received an intraperitoneal injection of normal saline (10 mL/kg) and the model animals received LPS stimulation (Sigma CAT #L2630, i.p., 10 mL/kg, 0.2 mg/kg). To the test compounds, DMSO, Solutol and 10 mM PBS were sequentially added to prepare a solution or suspension of required concentration for administration. For the vehicle, DMSO, Solutol and 10 mM PBS were mixed in a volume ratio of 5:15:80. The animals were administered through oral gavage (10 mL/kg) 16 h before LPS (or saline) stimulation at predetermined doses, and euthanized with CO2 at 1.5 h after the stimulation for cardiac blood collection. The whole blood was not anticoagulated, incubated in wet ice for 1.5 h, and centrifuged at 2000×g at 4° C. for 10 min to separate the serum. Serum was frozen at −80° C. for TNF-α assay. Quantification of TNF-α was done by TNF-α ELISA kit according to the manufacturer's instructions. The readings of absorbance at A450 were measured with a microplate reader SpectraMax i3x (Molecular Device) for calculating the inhibition of the compounds, and IC50 was calculated with GraphPad Prism 7.0 software. […] In particular, some exemplary compound inhibition rate values are as follows: […]

human IRAK4 = target: T3, human IRAK4 (Homo sapiens, UniProt Q9NWZ3); test: IRAK4 MSA (Mobility-Shift Assay) at Km concentration of ATP; assay type: biochemical; settings: GST-IRAK4 1 nM, ATP 37 μM (Km); read-out: IC50 for inhibiting human IRAK4 activity
T3 construct: purchased Cama (so in the source)
T3 sequence (Q9NWZ3 1-460): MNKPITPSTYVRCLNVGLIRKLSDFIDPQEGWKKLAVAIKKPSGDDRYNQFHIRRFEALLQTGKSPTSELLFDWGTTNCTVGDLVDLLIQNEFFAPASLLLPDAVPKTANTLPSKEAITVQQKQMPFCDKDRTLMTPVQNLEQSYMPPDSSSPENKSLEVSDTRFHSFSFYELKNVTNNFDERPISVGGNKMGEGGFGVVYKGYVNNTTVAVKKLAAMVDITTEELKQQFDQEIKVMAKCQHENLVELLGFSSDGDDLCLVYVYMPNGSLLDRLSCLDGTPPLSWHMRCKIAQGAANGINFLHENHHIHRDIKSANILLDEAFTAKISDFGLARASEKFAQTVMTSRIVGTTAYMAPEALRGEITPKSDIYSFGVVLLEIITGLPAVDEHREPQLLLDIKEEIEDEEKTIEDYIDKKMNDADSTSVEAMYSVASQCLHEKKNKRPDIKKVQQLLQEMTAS
Experimental: A recombinant fusion protein of N-terminal GST (glutathione-S-transferase) and human IRAK4 was used as enzyme (GST-IRAK4, kinase IRAK4 (Cama, CAT No. 09-145)) at a final concentration of 1 nM; ATP (Sigma. CAT No. A7699-1G) was at a final concentration of 37 μM; • the substrates used for the kinase reaction were 5-FAM (5-carboxyfluorescein)-labeled polypeptide (5-FAM-[…]-COOH) and substrate peptide FAM-P8 (GL Biochem, CAT No. 112396) at final concentrations of 5 μM.
In this assay, 500 μM stock solutions of the compounds were prepared in 100% DMSO, and serially 4-fold diluted to the 10th concentration gradient with 100% DMSO, followed by a 10-fold dilution in the compound buffer (50 mM HEPES, pH 7.5, 0.00015% Brij-35) to give intermediate dilutions of the compounds at a final concentration of 10 μM−0.04 nM containing 10% DMSO. 5 μL of the intermediate dilution was transferred into a black 384-well plate.
IRAK4 was diluted to 2.5 nM in the kinase buffer (50 mM HEPES, pH 7.5, 0.00015% Brij-35, 2 mM DTT). 10 μL of the IRAK4 dilution was transferred to the 384-well plate and co-incubated with the compound for 10-15 min.
The substrate and ATP were diluted to 12.5 μM and 92.5 μM with reaction buffer (50 mM HEPES, pH 7.5, 0.00015% Brij-35, 10 mM MgCl2), respectively. 10 μL of the dilution was transferred to a 384-well plate and incubated at 28° C. for 1 h. The reaction was terminated by adding 25 μL of 50 mM EDTA to the 384-well plate.
The inhibition rate of IRAK4 by the compounds was calculated by measuring the rate of phosphorylated substrate using a Caliper EZ Reader (PerkinElmer) and the IC50 was calculated by XL-fit software. […] In particular, some exemplary compound activity values are as follows: […]

[5] = Pharmacokinetic study, single oral gavage dosing; assay type: in vivo; settings: mouse, 40 mg/kg, 40 mpk, 15% solutol HS15 + 85% PBS, ICR mice, plasma
CYP3A4 [6] = target: T1, CYP3A4; test: Time-dependent inhibition (TDI) of CYP3A4 in human liver microsomes; assay type: in vitro ADME; settings: probe substrate midazolam
Experimental: This study was intended to investigate the time-dependent inhibition effect of the compounds on CYP3A4 in human P450 superfamily. The mixed human liver microsomes used in this assay were purchased from Corning (USA).
The test compounds were co-incubated with the human liver microsomes and a probe substrate midazolam (CYP3A4), and the concentration of the test compounds was set at 30 μM. The reaction was initiated by adding coenzyme NADPH, and terminated by adding acetonitrile dossolved with internal standard in advance. After the proteins were precipitated, the supernatant was centrifuged. The characteristic metabolite 1-hydroxy-midazolam (CYP3A4) in the supernatant was analyzed by LC-MS/MS. The influence of the test compounds on production of the characteristic metabolites was finally analyzed on the basis of the data obtained. A selective inhibitor (verapamil for CYP3A4-M) was used as positive control.

T1 sequence (P08684 whole entry): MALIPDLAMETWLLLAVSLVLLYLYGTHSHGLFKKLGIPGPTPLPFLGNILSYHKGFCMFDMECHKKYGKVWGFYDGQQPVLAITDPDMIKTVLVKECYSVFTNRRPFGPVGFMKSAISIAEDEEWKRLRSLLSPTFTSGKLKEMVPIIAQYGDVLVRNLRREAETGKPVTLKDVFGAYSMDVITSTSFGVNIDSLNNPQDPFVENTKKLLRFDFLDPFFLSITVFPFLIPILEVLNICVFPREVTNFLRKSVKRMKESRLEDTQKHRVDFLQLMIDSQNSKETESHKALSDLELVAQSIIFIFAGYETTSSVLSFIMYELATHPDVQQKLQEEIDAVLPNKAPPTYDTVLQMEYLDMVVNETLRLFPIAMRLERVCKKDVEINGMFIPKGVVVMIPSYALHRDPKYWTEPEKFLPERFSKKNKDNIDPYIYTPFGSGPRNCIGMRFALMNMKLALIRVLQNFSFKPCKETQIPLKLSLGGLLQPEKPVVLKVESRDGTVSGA
T2 sequence (P10635 whole entry): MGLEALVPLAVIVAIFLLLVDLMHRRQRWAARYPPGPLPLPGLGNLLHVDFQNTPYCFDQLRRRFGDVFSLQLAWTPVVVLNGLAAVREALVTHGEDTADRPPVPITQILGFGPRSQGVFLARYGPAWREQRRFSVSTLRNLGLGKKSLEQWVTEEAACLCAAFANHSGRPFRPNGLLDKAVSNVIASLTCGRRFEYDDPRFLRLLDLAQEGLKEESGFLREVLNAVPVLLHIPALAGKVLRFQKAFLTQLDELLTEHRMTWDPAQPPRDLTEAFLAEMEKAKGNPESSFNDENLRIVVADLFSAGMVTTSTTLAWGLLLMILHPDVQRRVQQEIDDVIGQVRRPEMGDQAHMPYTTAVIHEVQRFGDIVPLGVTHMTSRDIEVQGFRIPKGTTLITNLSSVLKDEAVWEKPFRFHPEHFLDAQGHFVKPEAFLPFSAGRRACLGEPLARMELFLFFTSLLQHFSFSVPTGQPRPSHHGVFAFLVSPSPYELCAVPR

Row | fraction unbound at 5 h, 1 μM [1] | IC50 (CYP3A4 [2]) [nM] | fraction unbound at 5 h, 1 μM [3] | fraction unbound at 5 h, 1 μM [4] | IC50 (CYP2D6) [nM] | IC50 (human IRAK4) [nM] | AUC(0-t) ([5]; read-out: Area under curve AUC0-t) [µg·h/mL] | AUC(0-inf) ([5]; read-out: Area under curve AUC0-∞) [µg·h/mL] | MRT ([5]; read-out: Average retention time MRT) [h] | half-life ([5]; read-out: Half life t1/2 (converted)) [h] | Cmax ([5]; read-out: Peak concentration Cmax) [ng/mL] | Tmax ([5]; read-out: Time to peak tmax) [h] | TDI (3A4, 30 μM) (CYP3A4 [6]) | Compound | Inhibition rate (%) of TNF-α (TNF-α release) [%]
1 | 0.13 | > 30000 | 0.0098 | 0.148 | > 30000 |  |  |  |  |  |  |  |  | CC(C)(O)CCn1cc2cc(NC(=O)c3cccc(C(F)(F)F)n3)c(C(C)(C)O)cc2n1 [A, reference compound] | 
2 | 0.183 |  | 0.191 | 0.238 |  | 7.6 | 160 | 182 | 10.4 | 7.23 | 18900 | 1 |  | COc1cc2nn([C@H]3CC[C@H](O)CC3)cc2cc1NC(=O)c1cccc(C)[n+]1[O-] [Compound 013, 2-((2-((1r,4r)-4-hydroxycyclohexyl)-6-methoxy-2H-indazol-5-yl)carbamoyl)-6-methylpyridine 1-oxide] | 76.29
3 |  |  |  |  |  |  |  |  |  |  |  |  | +3.85% | COc1cc2nn([C@H]3CC[C@H](O)CC3)cc2cc1NC(=O)c1cccc(C2CC2)[n+]1[O-] [Compound 014, 2-cyclopropyl-6-((2-((1r,4r)-4-hydroxycyclohexyl)-6-methoxy-2H-indazol-5-yl)carbamoyl)pyridine 1-oxide] | 
4 | 0.099 |  | 0.131 | 0.123 |  | 8.1 |  |  |  |  |  |  |  | CCOc1cc2nn([C@H]3CC[C@H](O)CC3)cc2cc1NC(=O)c1cccc(C)[n+]1[O-] [Compound 016, 2-((6-ethoxy-2-((1r,4r)-4-hydroxycyclohexyl)-2H-indazol-5-yl)carbamoyl)-6-methylpyridine 1-oxide] | 78.71
